From US9353134B2, “Silicon-containing carboxylic acid derivative” (KEMPHYS LTD., priority 2012, dated 2016) come the findings set out here.

One may read the melting point as the temperature of the solid-liquid transition.

Compound `C[Si](C)(CC(CN)CC(=O)O)C1CC1` (stereo not shown) gave a melting point of 151.5 to 153 °C.
